Some results are limits rather than exact numbers.

Experiment [1] concerns recombinant human CFTR carrying the premature stop codon (PTC) mutation G542X. The experiment in a line: CFTR-PTC mutant translation readthrough, Nanoluc tagged CFTR luminescence (G542X cell line). In kind it is cell-based. Conditions: in combination with G418, G542X cell line; for CFTR G542X ACTIVITY Fold 10 μM G-418: fold over 10 μM G-418; for EC50: 16HBE cells. An outline of the steps: (§1)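 16HBE cells stably expressing Nanoluc-tagged human CFTR with G542X or R1162X, in medium with 3 μM VX-809, treated 48 h at 37 °C with compound (10-point, 2-fold, top 50 μM final) alone or with 10 μM G418. Live-cell Nanoluc luminescence normalised to a maximally effective G418 (125-250 μM).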

Experiment [2] concerns recombinant human CFTR carrying the premature stop codon (PTC) mutation R1162X. The experiment in a line: CFTR-PTC mutant translation readthrough, Nanoluc tagged CFTR luminescence (R1162X cell line). The experiment is classed as cell-based. Conditions: for CFTR R1162X ACTIVITY Fold 10 μM G-418: fold over 10 μM G-418, in combination with G418; for EC50: in combination with G418, 16HBE cells, read-out: CFTR R1162X ACTIVITY EC50. An outline of the steps: as §1

By EC50 is commonly meant the concentration at which the effect is half-maximal. Turning to `Cc1cccc(C(F)(F)F)c1COc1ccc(-n2cc(CO)nn2)cc1` [[1-[4-[[2-methyl-6-(trifluoromethyl)phenyl]methoxy]phenyl]triazol-4-yl]methanol], in experiment [1], the “CFTR G542X ACTIVITY Fold 10 μM G-418” value was “A′ (A′ = ≥10X)” and the EC50 was in the range of 1 to 10 µM. Besides, in experiment [2], the “CFTR R1162X ACTIVITY Fold 10 μM G-418” value is reported as “A′ (A′ = ≥10X)” and the EC50 fell in the range of 1 to 10 µM.
On to `OCc1cn(-c2ccc(CCc3c(Cl)cccc3Cl)cn2)cn1` [[1-[5-[2-(2,6-dichlorophenyl)ethyl]-2-pyridyl]imidazol-4-yl]methanol], for which, in experiment [1], the “CFTR G542X ACTIVITY Fold 10 μM G-418” value is on record as “B′ (B′ = ≥5X to <10X)” and the EC50 is 1 to 10 µM. In experiment [2], the “CFTR R1162X ACTIVITY Fold 10 μM G-418” value is “′” and the EC50 is over 10 µM.
On to `OCc1cn(-c2ccc(OCc3c(Cl)cccc3Cl)cn2)cn1` [[1-[5-[(2,6-dichlorophenyl)methoxy]-2-pyridyl]imidazol-4-yl]methanol], for which, in experiment [1], the “CFTR G542X ACTIVITY Fold 10 μM G-418” value is given as “B′ (B′ = ≥5X to <10X)” and the EC50 fell in the range of 1 to 10 µM. In addition, in experiment [2], the “CFTR R1162X ACTIVITY Fold 10 μM G-418” value is recorded as “A′ (A′ = ≥10X)” and the concentration giving a half-maximal response (EC50) is over 10 µM.
In the case of `NCc1cn(-c2ccc(OCc3c(Cl)cccc3Cl)cn2)nn1` [[1-[5-[(2,6-dichlorophenyl)methoxy]-2-pyridyl]triazol-4-yl]methanamine], in experiment [1], the “CFTR G542X ACTIVITY Fold 10 μM G-418” value was “A′ (A′ = ≥10X)” and the EC50 was 1 to 10 µM. In experiment [2], the “CFTR R1162X ACTIVITY Fold 10 μM G-418” value was “A′ (A′ = ≥10X)” and the EC50 was in the range of 1 to 10 µM.
In the case of `OCc1cn(-c2ccc(OCc3c(Cl)cccc3Cl)cn2)nn1` [[1-[5-[(2,6-dichlorophenyl)methoxy]-2-pyridyl]triazol-4-yl]methanol], in experiment [1], the “CFTR G542X ACTIVITY Fold 10 μM G-418” value was “A′ (A′ = ≥10X)” and the EC50 was under 1 µM. Besides, in experiment [2], the “CFTR R1162X ACTIVITY Fold 10 μM G-418” value is “A′ (A′ = ≥10X)” and the EC50 was under 1 µM.
On to `NCC1CCCN(c2ncc(OCc3c(Cl)cccc3Cl)cn2)C1` (centres unmarked) [[1-[5-[(2,6-dichlorophenyl)methoxy]pyrimidin-2-yl]-3-piperidyl]methanamine], for which, in experiment [1], the “CFTR G542X ACTIVITY Fold 10 μM G-418” value is listed as “A′ (A′ = ≥10X)” and the EC50 was under 1 µM. In addition, in experiment [2], the “CFTR R1162X ACTIVITY Fold 10 μM G-418” value is “A′ (A′ = ≥10X)” and the EC50 is under 1 µM.
Regarding `OCC1CCCN(c2ncc(OCc3c(Cl)cccc3Cl)cn2)C1` (centres unmarked) [[1-[5-[(2,6-dichlorophenyl)methoxy]pyrimidin-2-yl]-3-piperidyl]methanol], in experiment [1], the “CFTR G542X ACTIVITY Fold 10 μM G-418” value is recorded as “A′ (A′ = ≥10X)” and the EC50 is 1 to 10 µM. Besides, in experiment [2], the “CFTR R1162X ACTIVITY Fold 10 μM G-418” value was “A′ (A′ = ≥10X)” and the EC50 is 1 to 10 µM.
Consider `OCC1(F)CCN(c2ncc(OCc3c(Cl)cccc3Cl)cn2)CC1` [[1-[5-[(2,6-dichlorophenyl)methoxy]pyrimidin-2-yl]-4-fluoro-4-piperidyl]methanol], for which, in experiment [1], the “CFTR G542X ACTIVITY Fold 10 μM G-418” value was “A′ (A′ = ≥10X)” and the EC50 is under 1 µM. Moreover, in experiment [2], the “CFTR R1162X ACTIVITY Fold 10 μM G-418” value is “A′ (A′ = ≥10X)” and the concentration giving a half-maximal response (EC50) was under 1 µM.
As to `OCc1cn(-c2ncc(OCc3c(Cl)cccc3Cl)cn2)cn1` [[1-[5-[(2,6-dichlorophenyl)methoxy]pyrimidin-2-yl]imidazol-4-yl]methanol], in experiment [1], the “CFTR G542X ACTIVITY Fold 10 μM G-418” value is “A′ (A′ = ≥10X)” and the EC50 was under 1 µM. Also, in experiment [2], the “CFTR R1162X ACTIVITY Fold 10 μM G-418” value is on record as “A′ (A′ = ≥10X)” and the EC50 is 1 to 10 µM.
For `OCc1ccn(-c2ncc(OCc3c(Cl)cccc3Cl)cn2)n1` [[1-[5-[(2,6-dichlorophenyl)methoxy]pyrimidin-2-yl]pyrazol-3-yl]methanol], in experiment [1], the “CFTR G542X ACTIVITY Fold 10 μM G-418” value is recorded as “A′ (A′ = ≥10X)” and the EC50 is under 1 µM. Further, in experiment [2], the “CFTR R1162X ACTIVITY Fold 10 μM G-418” value is recorded as “A′ (A′ = ≥10X)” and the EC50 lay in the range of 1 to 10 µM.
In the case of `OCc1cn(-c2ncc(OCc3c(Cl)cccc3Cl)cn2)nn1` [[1-[5-[(2,6-dichlorophenyl)methoxy]pyrimidin-2-yl]triazol-4-yl]methanol], in experiment [1], the “CFTR G542X ACTIVITY Fold 10 μM G-418” value is “A′ (A′ = ≥10X)” and the EC50 is 1 to 10 µM. In addition, in experiment [2], the “CFTR R1162X ACTIVITY Fold 10 μM G-418” value was “A′ (A′ = ≥10X)” and the EC50 was in the range of 1 to 10 µM.
